From US20250325527A1, “KIF18A INHIBITION FOR TREATMENT OF CANCER” (AMGEN INC., priority 2022, published 2025)

Experiments:
[1] = tested on: HCC1806 cells; assay: 5-day MTT endpoint viability assay, HCC1806
Experimental: The following day, drugs were added as indicated and cells were cultured for 5 days. […] 100 μL 10% SDS, 0.01M HCl solution was then added to each well to dissolve the formazan crystals. Absorbance was measured with a spectrophotometer at 570 nm. % Viability=(Signal[sample]−Signal[DMN])/(Signal [DMSO]−Signal [DMN])×100 unless specifically noted. % Toxicity=100%−Viability. % Viability rescue=(Signal [sample, KIF18Ai]−Signal[WT, KIF18Ai])/(Signal[WT, DMSO]−Signal [WT, KIF18Ai])×100. Drug titration curves were derived using the equation for “[Inhibitor] vs. response−Variable slope (four-parameter)” in GraphPad Prism 7 for Mac OS X (GraphPad Software, La Jolla, USA).

[2] = tested on: panel of sensitive and insensitive cell lines (RPE1, MCF10A, HCT116, DLD1, MCF7, MDA-MB-157, HCC1806, HeLa, OVCAR-3, OVCAR-8); assay: 5-day MTT endpoint viability assay, cell line panel; type: cell-based; conditions: sensitive cell lines co-treated with KIF18Ai and low doses of Reversine (30 nM, FIG. 9E)
Excerpt: To investigate the determinants of KIF18A dependency in cancer, we used AM-1882, a highly specific small molecule KIF18A inhibitor (KIF18Ai) developed by Amgen Inc^21,23. Treatment with KIF18Ai causes stable binding of the KIF18A motor domain to microtubules^23, leading to the relocation of KIF18A in mitosis from kinetochores to spindle poles in all the cell lines tested (FIG. 8a and FIG. 15a). This mis-localization phenocopies the effect of KIF18A loss^21, likely by blocking KIF18A-induced stabilization of microtubule plus ends^16. We examined the effect of KIF18Ai on cell viability using a 5-day endpoint assay performed with non-transformed cells (RPE1 and MCF10A) and a panel of colon (HCT116, DLD1), breast (MCF7, MDA-MB-157, HCC1806), and ovarian (HeLa, OVCAR-3, OVCAR-8) cancer cell lines (FIG. 8b,c and FIG. 15b).

[3] = tested on: HCC1806 cells; assay: mitotic duration and fate (slippage) by live-cell timelapse imaging of cells arrested with DMN; type: cell-based
Experimental: To define the capacity of KIF18Ai-resistant HCC1806 clonal lines to maintain the mitotic state, we arrested cells indefinitely in mitosis with the Eg5 inhibitor dimethylenastron (DMN) which causes spindle collapse and chronic SAC activation^28,29. We then monitored mitotic slippage by live-cell timelapse imaging.
Fluorescent cell lines were seeded into either 4-chamber, 35-mm glass-bottom culture dishes (Greiner), 4-well chamber slides (Ibidi), or 8-well chamber slides (Ibidi). The day of the experiment, cells were transferred to CO2-independent base medium (ThermoFischer) with the appropriate additives for each cell line and maintained at 37° C. in an environmental control station. Long-term time-lapse imaging was performed using a Deltavision Elite system (GE Healthcare) controlling a Scientific CMOS camera (pco.edge 5.5.). Images were acquired with an Olympus 40×1.4 NA oil objective. For general mitotic phenotypes, cells were treated as indicated, then images were captured every 5 min in 9×3 μm z-sections in respective fluorescent channels and by differential inference contrast. For CyclinB1-EYFP experiments, cells were treated as indicated, then images were captured every 2.5 min in 9×3 μm z-sections in respective fluorescent channels and by differential inference contrast. Phenotypic evaluation and intensity measurements were taken from maximum intensity projected 2D time-lapse images. Mitotic duration was calculated as the time taken from nuclear envelope breakdown to the onset of anaphase. Metaphase to anaphase duration was calculated as the time from the appearance of the last, uninterrupted metaphase plate to the onset of anaphase. Analysis of Cyclin B1-EYFP mitotic intensity was measured from NEBD through 30 min past anaphase using FIJI. Intensity traces were manually aligned to the metaphase to anaphase inflection point, then normalized in R. If traces never inflected, they were aligned to 30 min past NEBD.

[4] = tested on: breast and ovarian cancer cell lines (DNA barcoded human cancer cell lines); assay: PRISM screen, 5-day cell growth assay of pooled DNA barcoded cancer cell lines; type: cell-based; conditions: TP53 MUT cell lines, 5 days
Experimental: FIG. 1 is a series of scatter plots of pooled barcoded cancer cell lines treated in a 5-day cell growth assay with DMSO or KIF18Ai C9 (8-point concentration range), relative abundance of unique cell line barcodes was measured to estimate cell viability. KIF18Ai C9 AUC values versus CIN features (whole genome doubling (WGD), ploidy, aneuploidy score (AS)) plus TP53 status in breast and ovarian cancer cell lines (n=58). Scatter plots show KIF18Ai C9 AUC versus CIN features plus TP53 status with mean AUC indicated for each group. Colored cell lines overlap with KIF18Ai C9 sensitivity in nonbarcoded screens. Dotted line indicates AUC value of 0.65. ** p=0.0037, *** p=0.0004 by unpaired t-test.
To investigate the anti-proliferative effects of KIF18A inhibitors, a PRISM (profiling relative inhibition simultaneously in mixtures) screen was conducted on a panel of DNA barcoded human cancer cell lines. Pooled cancer cell lines were treated with DMSO or increasing concentrations of KIF18A inhibitor, Compound C9, for 5 days, and then cell viability was determined by measuring the abundance for each unique DNA barcode. We divided the cell lines by CIN features (WGD, ploidy, aneuploidy score) and further subdivided them based on TP53 status. In the TP53^MUT cancer cell lines, we observed a significant enrichment for KIF18A inhibitor sensitivity in cell lines that were WGD+ with >2.1 ploidy (55%, 12 of 22 sensitive) relative to WGD− with ≤2.1 ploidy (21%, 4 of 19 sensitive) (p=0.0004).

O=C1NC(=NCc2cccs2)S/C1=C\c1ccc2ncccc2c1 [RO-3306]
rescue of viability in KIF18Ai-treated cells ([1]; sub-saturating concentrations of RO-3306): robust rescue of viability

c1nc2nc(Nc3ccc(N4CCOCC4)cc3)nc(NC3CCCCC3)c2[nH]1 [Reversine]
rescue of KIF18Ai toxicity [2]: rescued KIF18Ai toxicity | effect on cells ([1]; higher concentrations of Reversine): toxic to cells | rescue of KIF18Ai toxicity ([1]; low doses of Reversine, WT and UBE2S overexpressing HCC1806 treated with KIF18Ai): potent rescue of KIF18Ai toxicity | time to exit mitosis (all cells) ([3]; SAC function abolished with Reversine, compared with DMN arrest): less than an hour

CC(C)(C)NS(=O)(=O)c1cccc(NC(=O)c2ccc(S(=O)(=O)NC(C)(C)C)cc2N2CCC3(CC2)CC3)c1 [Compound C9, 4-(N-(tert-butyl)sulfamoyl)-N-(3-(N-(tert-butyl)sulfamoyl)phenyl)-2-(6-azaspiro[2.5]octan-6-yl)benzamide]
cell lines sensitive to KIF18A inhibitor ([4]; WGD+ with >2.1 ploidy (12 of 22 sensitive)): 55% | cell lines sensitive to KIF18A inhibitor ([4]; WGD− with ≤2.1 ploidy (4 of 19 sensitive)): 21% | cell lines sensitive to KIF18A inhibitor ([4]; aneuploidy score >8 (16 of 34 sensitive)): 47% | cell lines sensitive to KIF18A inhibitor ([4]; aneuploidy score ≤8 (0 of 7 sensitive)): 0%

CC1(C)CC(=O)C2=C(C1)NC(=S)NC2c1cccc(O)c1 (stereo not drawn) [DMN, dimethylenastron]
slippage rate ([3]; Cyclin B1 knockout HCC1806): 93% | time spent in mitosis ([3]; Cyclin B1 knockout HCC1806): 11 h | rate of mitotic slippage ([3]; HSET knockout HCC1806): 27% | time in mitosis ([3]; HSET knockout HCC1806): 19 h | cell death ([3]; WT HCC1806): 75% | mitotic slippage ([3]; WT HCC1806): 25% | time in mitosis (average) ([3]; WT HCC1806): 25 h | rate of mitotic slippage ([3]; hypomorphic MAD1 HCC1806): 95% | time in mitosis ([3]; hypomorphic MAD1 HCC1806): 23 h
